“Also recorded” adds a separate entry of the source.
Tests used:
[1] = system: fatty acid oxidation (FAO); assay: Fatty acid oxidation assay in liver lysate; type: in vivo, mouse; conditions: HFD+NCT vs HFD
Procedure: FAO in liver lysate was measured according to manufacturer's instructions using a calorimetric assay kit (Cat #E-141, Biomedical Research Service Centre, State University of New York, Buffalo, NY).
The large weight difference between the HFD and HFD+NCT groups in conjunction with decreased subcutaneous and hepatic adiposity was striking. There are only two routes of fat elimination; in the stool by malabsorption, which it was ruled out (FIG. 1E) and by oxidation. Thus, it was hypothesized that NCT was inducing an increase in FAO. Quantification of FAO was done using an assay that measures NADH by the conversion of iodonitrotetrazolium (INT) to INT-Formazan mediated by the NADH-requiring enzyme diaphorase. Performing the assay in the presence and absence of added octanoyl-CoA, which is converted through fatty acid β-oxidation to acetyl-CoA with conversion of NAD+ to NADH, provides specificity for FAO. The level of fatty acid oxidation is determined as the INT-formazan level in the presence of octanoyl CoA minus the level in the absence of octanoyl CoA.

citrate synthase = assay: Citrate synthase activity in liver homogenate; type: in vivo, mouse; conditions: HFD+NCT vs HFD
Procedure: Citrate synthase activity in liver homogenate was measured according to manufacturer's instructions using a calorimetry based MitoCheck Citrate Synthase Activity Assay Kit (Cat #701040, Cayman Chemicals, USA).

cytochrome C = assay: Western blot, mouse liver, cytochrome C; type: in vivo; conditions: HFD+NCT vs HFD
Procedure: (§1) Mouse liver extracts were prepared by incubation in RIPA buffer (Invitrogen) containing protease inhibitors (Calbiochem, San Diego, CA). Protein was quantified by BCA assay (Thermo Scientific). Protein ([…] for cytochrome C) was separated on 12% or 16% Tri-Glycine gels (Invitrogen) and transferred to Immobilon P membrane (0.2 μm pore size, Millipore). After 1 hour in phosphate-buffered saline-Tween (PBST) with 3% milk, membranes were incubated with antibodies to PPARGC1A(PGC1α) (Cat #NBP1-04676, Novus, 1:1000), SDHA XP (Cat #11998, Cell Signaling 1:1000), or Cytochrome C (Cat #4280, Cell Signaling 1:500), followed by secondary antibody conjugated to horseradish peroxidase (1:5000, Jackson Immune or Cell Signaling). […] After detection, membrane was incubated with Ponceau S solution (Sigma) for 1 hr for normalization to loaded protein.

[2] = system: succinate dehydrogenase (SDHA); assay: Western blot, mouse liver, SDHA; type: in vivo; conditions: HFD+NCT vs HFD
Procedure: as §1

PPARGC1A (PGC1α) = assay: Western blot, mouse liver, PPARGC1A; type: in vivo; conditions: ten weeks of oral NCT
Procedure: as §1

SDHA mRNA = assay: qPCR mouse liver, SDHA mRNA; type: in vivo; conditions: HFD+NCT vs HFD
Procedure: (§2) Total RNA was isolated from liver tissues and primary human hepatocytes using Trizol (Invitrogen). cDNA was amplified using 3 μg of total RNA using qScript cDNA SuperMix (Quanta BioSciences, Beverly, MA, USA). Quantitative real time PCR (RT-PCR) analysis was performed using SYBR® Select Master Mix (Applied Biosystems) and an ABI 7900HT thermal cycler (Applied Biosystems, Thermo Fisher Scientific). Ct values were normalized to 18s rRNA and are expressed as fold change over samples from mice fed NC or cultured human hepatocytes without NCT.

HSP60 mRNA = assay: qPCR mouse liver, HSP60 mRNA; type: in vivo; conditions: HFD+NCT vs HFD
Procedure: as §2

PPARγ mRNA = assay: qPCR mouse liver, PPARγ mRNA; type: in vivo; conditions: HFD+NCT vs HFD; to the level of normal chow
Procedure: as §2

Sirt1 mRNA = assay: qPCR mouse liver, Sirtuin1 mRNA; type: in vivo; conditions: HFD+NCT vs HFD
Procedure: as §2

Parp1 mRNA = assay: qPCR mouse liver, Parp1 mRNA; type: in vivo; conditions: HFD+NCT vs HFD
Procedure: as §2

Parp2 mRNA = assay: qPCR mouse liver, Parp2 mRNA; type: in vivo; conditions: HFD+NCT vs HFD
Procedure: as §2

IL-1P mRNA = assay: qPCR mouse liver, IL-1β mRNA; type: in vivo; conditions: HFD+NCT vs HFD
Procedure: as §2

Sirtuin1 mRNA = assay: qPCR primary human hepatocytes, Sirtuin1 mRNA; type: cell-based; conditions: NCT 5, 15, 40 μM
Procedure: (§3) Experiments with primary human hepatocytes were performed by CN-Bio (Cambridge, UK). Briefly, primary human hepatocytes (PHHs), human Kupffer cells (HKs) and human stellate cells (HSCs) were seeded onto CN-Bio's PhysioMimix LC12 MPS culture plates at 6×10^5 cells for PHHs and 6×10^4 cells for HKs and HSCs in 1.6 ml of CN-Bio's HEP-lean media with 5% FCS. Throughout the experiment the cells were maintained at a flow rate of 1 μl/s. After 24 hours (Day 1) of seeding, the media was changed to HEP-lean media and the cells were incubated until day 4 to allow the cells to form microtissues. At day 4 post seeding, media was changed to HEP-fat media and treated with DMSO or NCT (5, 15, 40 μM). Media was replaced on days 6 and 8. Cells were harvested on day 10 for RNA extraction and culture media was collected for ELISA analysis.
as §2

IL-6 mRNA = assay: qPCR primary human hepatocytes, IL-6 mRNA; type: cell-based; conditions: NCT 5, 15, 40 μM
Procedure: as §3, §2

TNFα mRNA = assay: qPCR primary human hepatocytes, TNFα mRNA; type: cell-based; conditions: NCT 5, 15, 40 μM
Procedure: as §3, §2

nitric oxide (NO) = assay: Nitric oxide assay, mouse liver; type: in vivo; conditions: HFD+NCT vs HFD, normalized to liver weight
Procedure: T6PNE cells were maintained in RPMI (5.5 mM glucose, Corning) supplemented with 10% fetal bovine serum (FBS, Sigma-Aldrich) and 1% penicillin-streptomycin (pen-strep, Gibco) in 5% CO2 at 37° C. Cells were treated with […] palmitate plus 0 or 15 μM NCT for 3 days in 10 cm plates and harvested with 500 μl PBS. For tissue specimens, snap frozen mouse liver was weighed and homogenized with PBS. NO was measured with the QuantiChrom Nitric Oxide Assay kit (D2NO-100, BioAssay Systems). Homogenized samples (150 μl) were processed for deproteination with 8 μl ZnSO4 and 8 μl NaOH. For normalization, an aliquot of samples from T6PNE cells was taken for BCA assay before deproteination. Samples and standard from kit incubated with reagents for 20 min at 60° C. and measured OD 540 nm.

Microsomal stability = type: in vitro ADME; conditions: human microsomes compared with rodent
palmitate-loaded cells = assay: Fat clearance from palmitate-loaded cells; type: cell-based; conditions: in vitro

O=C(/C=C/c1ccc(O)c(O)c1)NCCc1ccc(O)cc1 [NCT, N-transcaffeoyltyramine]
FAO activity in the presence of octanoyl CoA [1]: increase
baseline activity in the absence of octanoyl CoA [1]: increase
overall FAO activity (+octanoyl CoA minus −octanoyl CoA) [1]: unchanged
citrate synthase activity (HFD-induced decrease) (citrate synthase): reversed; also recorded: substantial reversal
hepatic cytochrome C protein level (HFD-induced decrease) (cytochrome C): reversed
hepatic succinate dehydrogenase protein level (HFD-induced decrease) [2]: reversed
PPARGC1A protein in mouse liver (PPARGC1A (PGC1α)): increased
SDHA mRNA in mouse liver (SDHA mRNA): increased
HSP60 mRNA in mouse liver (HSP60 mRNA): greatly decreased
PPARγ expression in mouse liver (PPARγ mRNA): dramatically reduced
Sirt1 mRNA in mouse liver (effect of HFD) (Sirt1 mRNA): almost completely reversed
Parp1 mRNA level (Parp1 mRNA): not modulated
Parp2 mRNA level (Parp2 mRNA): not modulated
ILI p expression (FIG. 5C, mouse liver) (IL-1P mRNA): not significantly changed
Sirtuin1 mRNA in primary human hepatocytes (Sirtuin1 mRNA): significant effect
IL-6 mRNA in cultured human hepatocytes (IL-6 mRNA): reduced
TNFα mRNA in cultured human hepatocytes (TNFα mRNA): decreased in a dose-responsive manner
nitric oxide (NO) in liver (nitric oxide (NO)): decreased
microsomal stability, human versus rodent microsomes (Microsomal stability): much more stable
fat clearance from palmitate-loaded cells (palmitate-loaded cells): induced fat clearance
